The text below walks through data of US9988400B2 (Genentech, Inc., priority 2013, dated 2018).

The test concerns the target T1, HEK cells stably transfected with tetracycline inducible hNR1 and hNR2A (Homo sapiens, UniProt Q05586+Q12879).
T1 construct: expressed in transfected cells; host or cells: HEK cells, stably transfected, tetracycline/doxycycline inducible
As to the kind of experiment: Assay 1: Cell-Based Assay, cytosolic calcium response to positive allosteric modulators (with 30 μM glycine and 300 nM L-glutamate, EC30). The following applies: for EC50: cytosolic calcium response, with 30 μM glycine and 300 nM L-glutamate (EC30), — = no plateau was reached; for Max %: responses scaled relative to 100 μM L-glutamate maximal response (100%) and 0 μM L-glutamate (0%). Summed up: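 Cells induced 24 h with 7.5 μg mL^−1 doxycycline plus 500 μM (+)-ketamine, loaded 60 min at 37 °C with calcium dye in Mg-free HBSS (1.8 mM Ca, probenecid, 10 μM (+)-ketamine, pH 7.15). Peak RFU over 5 min after compound addition, scaled to 100 μM L-glutamate (100%) and 0 μM (0%); four-parameter Hill fit for EC50, max % if no plateau.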

T1 sequence (Q12879 23-1464, other chains not shown): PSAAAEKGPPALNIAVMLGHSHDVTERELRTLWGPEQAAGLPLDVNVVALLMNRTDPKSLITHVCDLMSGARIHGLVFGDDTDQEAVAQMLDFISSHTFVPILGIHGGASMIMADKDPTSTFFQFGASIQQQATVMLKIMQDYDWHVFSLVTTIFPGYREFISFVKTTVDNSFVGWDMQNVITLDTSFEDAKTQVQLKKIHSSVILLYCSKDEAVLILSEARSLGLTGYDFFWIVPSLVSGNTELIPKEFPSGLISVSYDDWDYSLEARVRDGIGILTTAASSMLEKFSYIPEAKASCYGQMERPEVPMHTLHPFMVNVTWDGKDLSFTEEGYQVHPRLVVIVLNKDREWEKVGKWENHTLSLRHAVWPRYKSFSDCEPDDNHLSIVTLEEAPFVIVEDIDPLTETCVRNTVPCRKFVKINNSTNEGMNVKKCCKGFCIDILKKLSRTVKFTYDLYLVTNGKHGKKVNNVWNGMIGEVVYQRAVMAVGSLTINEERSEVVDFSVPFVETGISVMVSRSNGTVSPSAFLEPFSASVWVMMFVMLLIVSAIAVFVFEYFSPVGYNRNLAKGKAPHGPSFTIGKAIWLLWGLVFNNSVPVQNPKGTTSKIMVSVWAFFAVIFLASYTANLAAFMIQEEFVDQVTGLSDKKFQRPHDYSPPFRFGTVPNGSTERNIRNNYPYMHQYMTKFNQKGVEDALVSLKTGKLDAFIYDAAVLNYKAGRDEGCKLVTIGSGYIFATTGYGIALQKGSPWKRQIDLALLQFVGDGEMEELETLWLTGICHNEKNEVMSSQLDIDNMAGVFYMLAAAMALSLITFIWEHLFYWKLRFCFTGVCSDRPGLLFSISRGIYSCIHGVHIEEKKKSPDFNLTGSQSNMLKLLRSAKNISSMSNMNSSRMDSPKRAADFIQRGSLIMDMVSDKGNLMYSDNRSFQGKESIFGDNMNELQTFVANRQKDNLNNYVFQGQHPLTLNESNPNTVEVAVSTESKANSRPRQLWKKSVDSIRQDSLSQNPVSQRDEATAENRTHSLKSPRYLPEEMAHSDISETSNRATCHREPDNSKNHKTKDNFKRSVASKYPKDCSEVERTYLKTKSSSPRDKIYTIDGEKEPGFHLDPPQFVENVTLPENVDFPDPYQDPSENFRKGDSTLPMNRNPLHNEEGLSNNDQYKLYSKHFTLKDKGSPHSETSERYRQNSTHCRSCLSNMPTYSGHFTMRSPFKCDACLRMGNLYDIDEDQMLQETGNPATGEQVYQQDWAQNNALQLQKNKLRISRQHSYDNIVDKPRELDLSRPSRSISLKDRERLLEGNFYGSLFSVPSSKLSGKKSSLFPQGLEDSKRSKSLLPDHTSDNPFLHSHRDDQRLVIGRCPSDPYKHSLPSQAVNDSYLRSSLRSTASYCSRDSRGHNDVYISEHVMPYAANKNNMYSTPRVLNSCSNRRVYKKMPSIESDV

In the case of `COc1sc2nc(Cn3nc(Cl)cc3C(F)(F)F)cc(=O)n2c1C(C)=O` [compound 245, 3-acetyl-7-[[3-chloro-5-(trifluoromethyl)pyrazol-1-yl]methyl]-2-methoxy-thiazolo[3,2-a]pyrimidin-5-one], where the note is “Table 3”, the EC50 stood at 409 nM. As to `Cc1sc2nc(COc3ccc(F)cc3)cc(=O)n2c1C1CC1C(C)(C)O` (stereo not shown) [Example 4.34, 7-(4-Fluorophenoxymethyl)-3-[2-(2-hydroxypropan-2-yl)cyclopropyl]-2-methyl-5H-[1.3]thiazolo[3,2-a]pyrimidin-5-one], where the note is “Table 2”, the Max % amounted to 49.2%. For the molecule `Cc1sc2nc(Cc3cccc(C(F)(F)F)c3F)cc(=O)n2c1CO` [Example 27.14, 7-(2-fluoro-3-(trifluoromethyl)benzyl)-3-(hydroxymethyl)-2-methyl-5H-thiazolo[3,2-a]pyrimidin-5-one], the EC50 (Table 2) was 44500 nM.

Regarding `Cc1sc2nc(Cn3ccc(C(F)(F)F)n3)cc(=O)n2c1C(C)O` (stereo not shown) [Example 18.1, 3-(1-hydroxyethyl)-2-methyl-7-((3-(trifluoromethyl)-1H-pyrazol-1-yl)methyl)-5H-thiazolo[3,2-a]pyrimidin-5-one], the Max % (Table 2) was 94.8%. Regarding `N#CC1CC1c1c(Cl)sc2nc(Cn3nc(Cl)cc3C(F)(F)F)cc(=O)n12` (stereo not shown) [compound 268, 2-[2-chloro-7-[[3-chloro-5-(trifluoromethyl)pyrazol-1-yl]methyl]-5-oxo-thiazolo[3,2-a]pyrimidin-3-yl]cyclopropanecarbonitrile], the EC50 (Table 3) worked out at 182 nM. Take `Cc1sc2nc(Cn3nc(C4CC4)cc3C3CC3)cc(=O)n2c1[C@@H]1C[C@H]1CO` (relative stereo) [Example 15.17, 7[(3,5-dicyclopropylpyrazol-1-yl)methyl]-3-[trans-2-(hydroxymethyl)cyclopropyl]-2-methyl-thiazolo[3,2-a]pyrimidin-5-one]: where the note is “Table 2”, the EC50 came out at 3400 nM and the Max % is 137%.

Consider `CCc1cc(C(F)(F)F)nn1Cc1cc(=O)n2c(C3CC3CO)c(C)sc2n1` (stereo not shown) [Example 15.1, 7-((5-ethyl-3-(trifluoromethyl)-1H-pyrazol-1-yl)methyl)-3-(2-(hydroxymethyl)cyclopropyl)-2-methyl-5H-thiazolo[3,2-a]pyrimidin-5-one], for which, where the note is “Table 2”, the EC50 worked out at 2200 nM and the Max % is 144%. Regarding `Cc1sc2nc(Cn3nc(C(F)(F)F)cc3Cl)cc(=O)n2c1-c1nccs1` [compound 142, 7-[[5-chloro-3-(trifluoromethyl)pyrazol-1-yl]methyl]-2-methyl-3-thiazol-2-yl-thiazolo[3,2-a]pyrimidin-5-one], the EC50 (Table 3) was determined as 2090 nM. Take `Cc1sc2nc(Cc3cccc(C(F)(F)F)c3F)cc(=O)n2c1C1CC1O` (stereo not shown) [compound 100, 7-[[2-fluoro-3-(trifluoromethyl)phenyl]methyl]-3-(2-hydroxycyclopropyl)-2-methyl-thiazolo[3,2-a]pyrimidin-5-one]: the EC50 (Table 3) was determined as 11600 nM.

Consider `CCNC(=O)c1c(C)sc2nc(Cc3cc(C#N)cc(C4CC4)c3F)cc(=O)n12` [compound 4, 7-[(5-cyano-3-cyclopropyl-2-fluoro-phenyl)methyl]-N-ethyl-2-methyl-5-oxo-thiazolo[3,2-a]pyrimidine-3-carboxamide], for which the EC50 (Table 3) is 3880 nM. On to `Cc1sc2nc(CN(C)c3ccc(F)cn3)cc(=O)n2c1C1CC1CO` (stereo not shown) [compound 182, 7-[[(5-fluoro-2-pyridyl)-methyl-amino]methyl]-3-[2-(hydroxymethyl)cyclopropyl]-2-methyl-thiazolo[3,2-a]pyrimidin-5-one], for which the EC50 (Table 3) worked out at 175 nM. With `Cc1sc2nc(Cn3nc(Cl)cc3C(F)(F)F)cc(=O)n2c1C(C)(C)O` [compound 109, 7-[[3-chloro-5-(trifluoromethyl)pyrazol-1-yl]methyl]-3-(1-hydroxy-1-methyl-ethyl)-2-methyl-thiazolo[3,2-a]pyrimidin-5-one], the EC50 (Table 3) turned out to be 734 nM. On to `CCN(Cc1cc(=O)n2c(C#N)c(C)sc2n1)c1cccc(C#N)c1` [Example 7.6, 7-(((3-cyanophenyl)(ethyl)amino)methyl)-2-methyl-5-oxo-5H-thiazolo[3,2-a]pyrimidine-3-carbonitrile], for which, for the setting “Table 2”, the 50% effective concentration (EC50) was 3700 nM and the Max % worked out at 151%.

As to `CCNC(=O)c1c(C)sc2nc(Cc3cc(C#N)ccc3Cl)cc(=O)n12` [Example 21.6, 7-(2-chloro-5-cyanobenzyl)-N-ethyl-2-methyl-5-oxo-5H-thiazolo[3,2-a]pyrimidine-3-carboxamide], for the setting “Table 2”, the EC50 amounted to 45300 nM and the Max % is 114%. `Cc1sc2nc(Cn3nc(C(F)(F)F)cc3Cl)cc(=O)n2c1C1CC1C` (single isomer, unassigned) [compound 155]: for the setting “Table 3”, the EC50 worked out at 61.6 nM.

For the molecule `CCN(Cc1cc(=O)n2c([C@@H]3C[C@H]3CO)c(C)sc2n1)c1ccccn1` (relative stereo) [Example 5.7, 7-((ethyl(pyridine-2-yl)amino)methyl)-3-(trans-2-(hydroxymethyl)cyclopropyl)-2-methyl-5H-thiazolo[3,2-a] pyrimidin-5-one], where the note is “Table 2”, the EC50 turned out to be 867 nM and the Max % is reported as 160%. In the case of `Cc1sc2nc(Cn3nc(C(F)(F)F)cc3C3CC3)cc(=O)n2c1C#N` [Example 17.2, 7-((5-cyclopropyl-3-(trifluoromethyl)-1H-pyrazol-1-yl)methyl)-2-methyl-5-oxo-5H-thiazolo[3,2-a]pyrimidine-3-carbonitrile], for the setting “Table 2”, the EC50 came to 2000 nM and the Max % was determined as 119%. For `CCN(Cc1cc(=O)n2c(CN3CC(O)C3)c(C)sc2n1)c1ccc(F)cc1` [Example 10.10, 7-[(N-ethyl-4-fluoro-anilino)methyl]-3-[(3-hydroxyazetidin-1-yl)methyl]-2-methyl-thiazolo[3,2-a]pyrimidin-5-one], in that order: 18800 nM and 132%.

Turning to `O=c1cc(Cn2nc(Cl)cc2C(F)(F)F)nc2sc(C(F)(F)F)c(-c3cncnc3)n12` [compound 172, 7-[[3-chloro-5-(trifluoromethyl)pyrazol-1-yl]methyl]-3-pyrimidin-5-yl-2-(trifluoromethyl)thiazolo[3,2-a]pyrimidin-5-one], the EC50 (Table 3) came to 27600 nM. On the same count and under the same terms, next, `C#Cc1cc(F)c(F)cc1Cc1cc(=O)n2c(C(=O)NC)c(C)sc2n1` [compound 37, 7-[(2-ethynyl-4,5-difluoro-phenyl)methyl]-N,2-dimethyl-5-oxo-thiazolo[3,2-a]pyrimidine-3-carboxamide]: 9020 nM; `CCNC(=O)c1c(C)sc2nc(Cc3cccc(C(F)(F)F)c3F)c(F)c(=O)n12` [compound 13, N-ethyl-6-fluoro-7-[[2-fluoro-3-(trifluoromethyl)phenyl]methyl]-2-methyl-5-oxo-thiazolo[3,2-a]pyrimidine-3-carboxamide]: 858 nM.

Usually EC50 stands for the midpoint of the concentration-response curve.
